ChEMBL document CHEMBL5512696, “Discovery of a Novel ASM Direct Inhibitor with a 1,5-Diphenyl-pyrazole Scaffold and Its Antidepressant Mechanism of Action” (J Med Chem, 2024)
Calls of active or inactive are those of the source.

How the values were obtained:
Assay type in all cases: functional, organism-based
Details in all cases: time 2.0 weeks
Mus musculus [1] = test: Antidepressant activity in ICR mouse model of chronic unpredictable mild stress assessed as downregulation of neuronal apoptosis by measuring increase in BDNF protein level in hippocampus at 12 mg/kg, ip administered once a day for 1 week post 8 week of chronic unpredictable mild stress and measured after 1 week by Western blot analysis
Mus musculus [2] = test: Antidepressant activity in ICR mouse model of chronic unpredictable mild stress assessed as reduction in oxidative stress by measuring reduction in MDA level in cerebral cortex at 12 mg/kg, ip administered once a day for 1 week post 8 week of chronic unpredictable mild stress and measured after 1 week by ELISA
Mus musculus [3] = test: Antineuroinflammatory activity in ICR mouse model of chronic unpredictable mild stress assessed as reduction in IL-1beta level in serum at 12 mg/kg, ip administered once a day for 1 week post 8 week of chronic unpredictable mild stress and measured after 1 week by ELISA
Mus musculus [4] = test: Antidepressant activity in ICR mouse model of chronic unpredictable mild stress assessed as reduction in sphingosine-1-phosphate level in cerebral cortex at 12 mg/kg, ip administered once a day for 1 week post 8 week of chronic unpredictable mild stress and measured after 1 week by ELISA
Mus musculus [5] = test: Antineuroinflammatory activity in ICR mouse model of chronic unpredictable mild stress assessed as reduction in IL-6 level in serum at 12 mg/kg, ip administered once a day for 1 week post 8 week of chronic unpredictable mild stress and measured after 1 week by ELISA
Mus musculus [6] = test: In vivo inhibition of ASM in ICR mouse model of chronic unpredictable mild stress assessed as increase in 5-HT uptake in hippocampus at 12 mg/kg, ip administered once a day for 1 week post 8 week of chronic unpredictable mild stress and measured after 1 week by ELISA
Mus musculus [7] = test: Antidepressant activity in ICR mouse model of chronic unpredictable mild stress assessed as reduction in sphingomyelin level in cerebral cortex at 12 mg/kg, ip administered once a day for 1 week post 8 week of chronic unpredictable mild stress and measured after 1 week by ELISA
Mus musculus [8] = test: Antineuroinflammatory activity in ICR mouse model of chronic unpredictable mild stress assessed as reduction in TNFalpha level in serum at 12 mg/kg, ip administered once a day for 1 week post 8 week of chronic unpredictable mild stress and measured after 1 week by ELISA
Mus musculus [9] = test: Antidepressant activity in ICR mouse model of chronic unpredictable mild stress assessed as reduction in sphingosine-1-phosphate level in hippocampus at 12 mg/kg, ip administered once a day for 1 week post 8 week of chronic unpredictable mild stress and measured after 1 week by ELISA

CNCCC(Oc1ccc(C(F)(F)F)cc1)c1ccccc1 (centres undefined)
active: Activity (Mus musculus [1]) | Activity (Mus musculus [2]) | Activity (Mus musculus [3]) | Activity (Mus musculus [4]) | Activity (Mus musculus [5]) | inhibition (Mus musculus [6]) | Activity (Mus musculus [7]) | Activity (Mus musculus [8]) | Activity (Mus musculus [9])
